Consider twelve compounds from ChEMBL document CHEMBL1201862, “PubChem BioAssay data set” (2004).

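Cells were grown in 96-well plates and exposed to each compound for 48 hours at five concentrations; endpoints were interpolated linearly between bracketing concentrations, or set to the highest concentration if not reached. GI50 = concentration required for 50% inhibition of growth.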 The source made the active and inactive calls. Cut-off read from the data, not from the text of the source: active = GI50 up to about 1.1 µM and inactive = higher.

Some test systems named below: UACC-62; EKVX; IGROV-1; SF-268; BT-549; HCT-116; M14; A549; SF-539; OVCAR-8; HL-60; MDA-MB-231; SK-OV-3; NCI-H522; MCF7; HOP-92; RPMI-8226; OVCAR-4; SW-620.
Common to all, as to assay: NCI anticancer screen, dose series, 48 h

With `COc1c(-c2ccc(F)cc2)oc2c(CC(=O)O)cccc2c1=O`, the GI50 with UACC-62, with EKVX, in the assay with IGROV-1, in the assay on SF-268, with BT-549 and with HCT-116 was > 100 µM (inactive) in each case. In addition, the GI50 in the assay with M14, in the assay on A549, in the assay on SF-539, in the assay on OVCAR-8, in the assay on HL-60 and with MDA-MB-231 was > 100 µM (inactive) each time. The GI50 in the assay on SK-OV-3, with NCI-H522 and with MCF7 was > 100 µM (inactive) each time.

As for `O=c1sc2c(s1)SSSSS2`, the GI50 in the assay on UACC-62 is 35.2 µM (inactive); in the assay with HOP-92 it was > 50 µM (inactive); with RPMI-8226 it was > 50 µM (inactive); with EKVX it was > 50 µM (inactive); in the assay with OVCAR-4, > 50 µM (inactive); with IGROV-1, > 50 µM (inactive). Further, the GI50 in the assay with SF-268 is 28.6 µM (inactive); with BT-549, > 50 µM (inactive); in the assay on HCT-116 it was > 50 µM (inactive); in the assay with M14, > 50 µM (inactive); in the assay with A549, > 50 µM (inactive); in the assay on SF-539, 20.2 µM (inactive). Moreover, the GI50 in the assay with OVCAR-8 is > 50 µM (inactive); in the assay on MDA-MB-231, > 50 µM (inactive); in the assay on SK-OV-3, > 50 µM (inactive); in the assay with SW-620, > 50 µM (inactive); in the assay with NCI-H522 it was 34.2 µM (inactive); in the assay with MCF7 it was 31.1 µM (inactive).

In the case of `COc1ccc(C2(CC(C)C)CCN(S(=O)(=O)c3ccc(C)cc3)C2)cc1OC` (stereo not drawn), the GI50 in the assay with UACC-62 is 43.9 µM (inactive); in the assay with EKVX, 76.9 µM (inactive); in the assay with OVCAR-4 it was 27.3 µM (inactive); in the assay on IGROV-1, 50.2 µM (inactive); with SF-268, 21.9 µM (inactive); in the assay with BT-549, 71.1 µM (inactive). Further, the GI50 in the assay with HCT-116 was 20.2 µM (inactive); in the assay with M14, 34.8 µM (inactive); in the assay on A549, 27.2 µM (inactive); in the assay on SF-539, 37 µM (inactive); in the assay on MDA-MB-231 it was > 100 µM (inactive); in the assay on SK-OV-3 it was 36.9 µM (inactive). Further, the GI50 in the assay on SW-620 is 99.5 µM (inactive); in the assay on NCI-H522, 25.8 µM (inactive); in the assay with MCF7, 32.2 µM (inactive).

Take `O=C1C=Cc2c(I)sc(I)c21`: the GI50 was 28.8 µM (inactive) in the assay with UACC-62; 17 µM (inactive) with HOP-92; 26.1 µM (inactive) with EKVX; 20 µM (inactive) in the assay on OVCAR-4; 15.9 µM (inactive) in the assay with IGROV-1; 12.4 µM (inactive) in the assay on SF-268. Moreover, the GI50 in the assay on BT-549 is 17.6 µM (inactive); in the assay with HCT-116 it was 15.7 µM (inactive); in the assay with M14, 27 µM (inactive); in the assay on A549, 26.2 µM (inactive); in the assay with SF-539 it was 25.6 µM (inactive); with OVCAR-8, 18.9 µM (inactive). In addition, the GI50 in the assay with MDA-MB-231 is 29.9 µM (inactive); in the assay on SK-OV-3, 89.7 µM (inactive); in the assay on SW-620 it was 13.4 µM (inactive); in the assay with NCI-H522, 1.99 µM (inactive); in the assay on MCF7, 18.4 µM (inactive).

With `NNC(=O)c1nn[nH]c1C(=O)NN`, the GI50 with RPMI-8226 was > 100 µM (inactive); in the assay on OVCAR-4, > 10 µM (inactive); in the assay with SF-268, > 100 µM (inactive); in the assay on BT-549 it was 13.6 µM (inactive); in the assay with HCT-116, > 100 µM (inactive); in the assay with M14, > 100 µM (inactive). For the same compound, the GI50 with A549, in the assay with OVCAR-8, in the assay with HL-60, in the assay with MDA-MB-231 and in the assay with MCF7 was > 100 µM (inactive) each time.

For the compound `Nc1nc(N)c2c3c(cnc2n1)CC(c1ccccc1)CC3` (stereo not drawn), the GI50 was 1.11 µM (active) in the assay with UACC-62; > 100 µM (inactive) with RPMI-8226; 11.2 µM (inactive) in the assay with EKVX; 14.3 µM (inactive) in the assay with OVCAR-4; 0.728 µM (active) with IGROV-1; 11.9 µM (inactive) with SF-268. For the same compound, the GI50 with BT-549 was 17 µM (inactive); with HCT-116, 2.86 µM (inactive); in the assay with M14, 3.24 µM (inactive); in the assay on A549, 2.03 µM (inactive); in the assay on SF-539, 14.3 µM (inactive); in the assay with OVCAR-8, 7.16 µM (inactive). Moreover, the GI50 in the assay on HL-60 is 6.43 µM (inactive); with MDA-MB-231, 21.4 µM (inactive); with SK-OV-3 it was 21.5 µM (inactive); in the assay with SW-620 it was 11.4 µM (inactive); with NCI-H522 it was 14.4 µM (inactive); with MCF7, 11.7 µM (inactive).

In the case of `N#C/C(N)=C(C#N)/N=C/Nc1ccccc1N`, the GI50 in the assay on UACC-62, in the assay on RPMI-8226, in the assay with EKVX, in the assay with OVCAR-4, in the assay on IGROV-1 and in the assay on SF-268 was > 100 µM (inactive) in each case. Moreover, the GI50 with BT-549, in the assay on HCT-116, with M14, with A549, with SF-539 and in the assay on OVCAR-8 was > 100 µM (inactive) each time. Further, the GI50 with HL-60, in the assay with MDA-MB-231, with SK-OV-3, with SW-620, in the assay on NCI-H522 and in the assay on MCF7 was > 100 µM (inactive) each time.

Regarding `Cc1oc(N)c(S(=O)(=O)/C(C#N)=C/c2ccccc2[N+](=O)[O-])c1C`, the GI50 in the assay on UACC-62 was 20.7 µM (inactive); in the assay on HOP-92 it was 34.7 µM (inactive); with RPMI-8226, 27.9 µM (inactive); with EKVX, 33.7 µM (inactive); in the assay with OVCAR-4, 38.5 µM (inactive); in the assay with IGROV-1 it was 24.9 µM (inactive). Also, the GI50 with SF-268 was 31 µM (inactive); in the assay on BT-549 it was 17.5 µM (inactive); in the assay on HCT-116 it was 20.8 µM (inactive); in the assay on M14, 18.5 µM (inactive); with A549 it was 25.2 µM (inactive); in the assay on SF-539, 25.5 µM (inactive). The GI50 in the assay with MDA-MB-231 was 32.9 µM (inactive); in the assay with SK-OV-3 it was > 100 µM (inactive); with SW-620, 26.6 µM (inactive); in the assay with NCI-H522, 19.1 µM (inactive); with MCF7 it was 31.1 µM (inactive).

With `N#CCCN(C(=O)Nc1ccc(NC(=O)N(CCC#N)c2ccccc2)cc1)c1ccccc1`, the GI50 with UACC-62, in the assay on RPMI-8226, in the assay on EKVX, with OVCAR-4, with IGROV-1 and with SF-268 was > 100 µM (inactive) each time. For the same compound, the GI50 with BT-549, in the assay on HCT-116, with M14, in the assay with A549, in the assay on OVCAR-8 and in the assay with HL-60 was > 100 µM (inactive) throughout. Besides, the GI50 in the assay on MDA-MB-231, in the assay on SK-OV-3, in the assay with SW-620, in the assay on NCI-H522 and with MCF7 was > 100 µM (inactive) throughout.

Consider `COc1ccc2c(-c3ccc(OCCN(C)C)cc3)c(Oc3ccccc3)c(=O)oc2c1`, for which the GI50 was 2.78 µM (inactive) with UACC-62; 9.53 µM (inactive) in the assay on HOP-92; 4.25 µM (inactive) in the assay with RPMI-8226; 11.1 µM (inactive) with EKVX; 16.9 µM (inactive) in the assay with OVCAR-4; 5.42 µM (inactive) in the assay with IGROV-1. In addition, the GI50 in the assay on SF-268 is 6.18 µM (inactive); in the assay with BT-549 it was 11 µM (inactive); in the assay on HCT-116 it was 2.58 µM (inactive); in the assay with M14 it was 1.64 µM (inactive); in the assay on A549, 3.37 µM (inactive); in the assay with SF-539, 3.91 µM (inactive). The GI50 was 10.5 µM (inactive) in the assay with OVCAR-8; 3.15 µM (inactive) in the assay with MDA-MB-231; 6.27 µM (inactive) in the assay with SK-OV-3; 4.2 µM (inactive) in the assay with SW-620; 3.48 µM (inactive) with NCI-H522; 3.57 µM (inactive) in the assay on MCF7.

For the compound `COc1cc(N(CCC#N)CCC#N)ccc1/C=N\NC(=O)c1ccc(C)cc1`, the GI50 with UACC-62, in the assay on HOP-92, with EKVX, in the assay on OVCAR-4, in the assay on IGROV-1 and in the assay with SF-268 was > 100 µM (inactive) in each case. The GI50 in the assay with BT-549, in the assay on HCT-116, with M14, in the assay with A549, with SF-539 and with OVCAR-8 was > 100 µM (inactive) each time. Also, the GI50 in the assay on HL-60 is > 100 µM (inactive); with MDA-MB-231, 18.2 µM (inactive); in the assay with SK-OV-3, > 100 µM (inactive); in the assay with SW-620, > 100 µM (inactive); in the assay on NCI-H522, > 100 µM (inactive).

As for `NC(=O)CNC(=O)[C@@H]1CC(OCCC(=O)O)CN1C(=O)C1CCCN1C(=O)OCc1ccccc1` (stereo partly drawn), the GI50 in the assay with UACC-62 is > 100 µM (inactive); in the assay with RPMI-8226, > 100 µM (inactive); in the assay with EKVX, 2.74 µM (inactive); in the assay on OVCAR-4, > 100 µM (inactive); with IGROV-1 it was > 100 µM (inactive); in the assay on SF-268, 49.2 µM (inactive). The GI50 with BT-549, in the assay on HCT-116, in the assay on M14, in the assay on A549, with OVCAR-8 and in the assay on HL-60 was > 100 µM (inactive) each time. For the same compound, the GI50 with MDA-MB-231, in the assay on SK-OV-3, in the assay on SW-620, with NCI-H522 and in the assay on MCF7 was > 100 µM (inactive) each time.
